Earlier results in US20140106026A1, “ARTICLE AND METHOD FOR TREATING, PREVENTING AND AMELIORATING ALCOHOL-INDUCED WERNICKE-KORSAKOFF SYNDROME” (priority 2012, published 2014).
Where two headings read alike, the source gives them in different places.

What was measured:
[1] = not given; remark: listed apart in the source
[2] = oral intake
[3] = not given; remark: listed apart in the source

**Q.** For `Cc1ncc(C[n+]2csc(CCO)c2C)c(N)n1` [Thiamine], which stability (at acidic pH) is on record?
**A.** stable

**Q.** What about the stability (in alkaline solutions) of the same compound?
**A.** unstable

**Q.** What about the stability towards sulfite (sulfite as contained in wine and cordials) of the same compound?
**A.** degrades

**Q.** And the solubility ([1]; in acetone, ether, chloroform, and benzene)?
**A.** practically insoluble

**Q.** And the solubility ([1]; in water, methanol, and glycerol)?
**A.** soluble

**Q.** What about the “intake above which decline in thiamine absorption occurs” value [2] of the same compound?
**A.** above 5 mg

**Q.** And the “half-life, in vivo” value [3]?
**A.** approximately two
